Assay results as given in US10189795B2, “Aryl amine substituted quinoxaline used as anticancer drugs” (priority 2014, dated 2019).

Columns and labels:
H358 = experiment: cell viability of H358 cells, 1 and 10 uM; format: cell-based; settings: Homo sapiens, NCI-H358
Procedure: [Worded in the source for another cell line; this cell line is reported under the same test.] (§1) Sorafenib (Nexavar), erlotinib (Tarceva) and Paclitaxel were kindly provided by Bayer Pharmaceuticals (Pittsburgh, Pa., USA) and Roche Pharmaceuticals (Basel, Switzerland) respectively. Okadaic acid (OA) was purchased from Cayman Chemical (Ann Arbor, Mich., USA) and z-VAD-fmk was obtained from Sigma (St. Louis, Mo., USA). For in vitro studies, drugs at various concentrations were dissolved in dimethyl sulfoxide (DMSO), and added to cells in Dulbecco's modified Eagle's medium (DMEM) or Roswell Park Memorial Institute (RPMI) containing 5% fetal bovine serum (FBS).
(§2) The Sk-Hep1, PLC/PRF/5 (PLC) and Hep3B cell lines were obtained from American Type Culture Collection (ATCC; Manassas, Va., USA). The Huh-7 HCC cell line was obtained from the Health Science Research Resources Bank (HSRRB; Osaka, Japan; JCRB0403). Cells were maintained in DMEM supplemented with 10% FBS in a 37° C. humidified incubator in an atmosphere of 5% CO^2 in air.

H520 = experiment: cell viability of H520 cells, 1 and 10 uM; format: cell-based; settings: Homo sapiens, NCI-H520
Procedure: [Worded in the source for another cell line; this cell line is reported under the same test.] as §1, §2

NCI-H226 = experiment: cell viability of NCI-H226 cells, 1 and 10 uM; format: cell-based; settings: Homo sapiens
Procedure: [Worded in the source for another cell line; this cell line is reported under the same test.] as §1, §2

H2170 = experiment: cell viability of H2170 cells, 1 and 10 uM; format: cell-based; settings: Homo sapiens, NCI-H2170
Procedure: [Worded in the source for another cell line; this cell line is reported under the same test.] as §1, §2

SW900 = experiment: cell viability of SW900 cells, 1 and 10 uM; format: cell-based; settings: Homo sapiens
Procedure: [Worded in the source for another cell line; this cell line is reported under the same test.] as §1, §2

NCI-1703 = experiment: cell viability of NCI-1703 cells, 1 and 10 uM of each erlotinib derivative, and IC50; format: cell-based; settings: Homo sapiens
Procedure: [Worded in the source for another cell line; this cell line is reported under the same test.] as §1, §2

A549 = experiment: cell viability of A549 cells, 1 and 10 uM; format: cell-based; settings: Homo sapiens
Procedure: [Worded in the source for another cell line; this cell line is reported under the same test.] as §1, §2

PP2A = PP2A phosphatase activity (malachite green-phosphate assay in cell lysate); format: cell-based
Procedure: The protein phosphatase activity in each cell lysate was determined by measuring the generation of free phosphate from threonine phosphopeptide using the malachite green-phosphate complex assay as described by the manufacturer (Upstate Biotechnology, Lake Placid, N.Y., USA). In brief, HCC cell lysates were first prepared in a low-detergent lysis buffer. […] After incubation for 10 min at 30° C., the malachite dye was added and free phosphate was measured by optical density at 650 nm. In order to avoid variation resulting from differences in the amount of immunoprecipitation protein between samples, the phosphatase activities were normalized to the amounts of PP2A immunoprecipitated, which were detected and quantified by immunoblot analysis for each treatment group.

SET-PP2Ac binding = molecular target: T1, SET-PP2Ac binding (Homo sapiens, UniProt Q01105); experiment: disruption of SET-PP2Ac binding (surface plasmon resonance, co-IP)
T1 construct: His; purchased Genway (SET-His); Abnova (PP2Ac-GST) GWB-ATG319; H00005515
T1 sequence (Q01105 1-277 isoform Q01105-2): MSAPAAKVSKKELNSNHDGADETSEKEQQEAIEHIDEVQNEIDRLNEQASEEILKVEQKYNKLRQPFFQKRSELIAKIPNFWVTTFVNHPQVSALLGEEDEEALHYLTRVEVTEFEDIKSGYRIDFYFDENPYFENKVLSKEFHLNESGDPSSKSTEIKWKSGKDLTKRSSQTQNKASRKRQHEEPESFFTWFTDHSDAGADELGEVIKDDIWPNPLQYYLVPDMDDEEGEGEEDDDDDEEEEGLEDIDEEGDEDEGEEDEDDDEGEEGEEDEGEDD
Procedure: Binding affinities of full-length SET and truncated SET to PP2Ac and the effect of the erlotinib derivatives of the present invention on disrupting SET and PP2Ac were analyzed. PP2Ac-GST recombinant protein was bound in the CMS chip pre-coated with GST-capture antibodies. Sensorgrams were generated by injecting several concentrations of the erlotinib derivatives of the present invention mixed with fixed-concentration of SET recombinant protein, or the mixture of different concentration of truncated SET proteins in a fixed-dose EMQA. PP2Ac-GST recombinant protein used for this experiment was purchased from Abnova (H00005515) and SET-His recombinant protein was obtained from Genway (GWB-ATG319).
EMQA reactivates PP2A by disrupting the binding of SET-PP2Ac. To validate the role of SET, the present invention generated Hep3B cells with ectopic expression of myc-tagged SET by transient transfection. […] With a fixed amount of PP2Ac coated on the CM chip, the present invention tested the effects of a fixed-dose of EMQA on interfering different proportions of full-length and truncated forms of SET proteins in SPR system. […] To validate the findings of this ex vivo system, the present invention generated cells with ectopic overexpression of these two truncated forms of Flag-tagged SET proteins by transient transfections.

| Compound | viability at 1 µM (H358) [%] | viability at 10 µM (H358) [%] | viability at 1 µM (H520) [%] | viability at 10 µM (H520) [%] | viability at 1 µM (NCI-H226) [%] | viability at 10 µM (NCI-H226) [%] | viability at 1 µM (H2170) [%] | viability at 10 µM (H2170) [%] | viability at 1 µM (SW900) [%] | viability at 10 µM (SW900) [%] | viability at 1 µM (NCI-1703) [%] | viability at 10 µM (NCI-1703) [%] | viability at 1 µM (A549) [%] | viability at 10 µM (A549) [%] | minimal concentration for PP2A activation (PP2A) [nM] | minimal concentration to disrupt SET-PP2Ac binding (SET-PP2Ac binding) [nM] | IC50 (NCI-1703; cell viability) [µM] |
| --- | --- | --- | --- | --- | --- | --- | --- | --- | --- | --- | --- | --- | --- | --- | --- | --- | --- |
| COc1ccc(Nc2nc3ccc([N+](=O)[O-])cc3nc2Nc2cccc(O)c2)cc1 [TD612, 3-(2-(4-methoxyphenylamino)-6-nitroquinoxalin-3-ylamino)phenol] | 97.3 ± 13.4 | 12.8 ± 0.4 | 107 ± 2.62 | 12.9 ± 1.2 | 69.4 ± 6.8 | 38 ± 1.4 | 107 ± 4.84 | 22.5 ± 11.8 | 105 ± 3.4 | 64.7 ± 4 | 82.7 ± 2.4 | 13.4 ± 0.7 | 90.6 ± 18.2 | 10.3 ± 1.2 | <100 | – | – |
| FC(F)(F)c1cc(Nc2nc3ccccc3nc2Nc2ccc(Cl)c(C(F)(F)F)c2)ccc1Cl [TD63, N^2,N^3-bis(4-chloro-3-(trifluoromethyl)phenyl)quinoxaline-2,3-diamine] | 66.8 ± 8.5 | 16.2 ± 1.3 | 28.5 ± 0.58 | 0.45 ± 0.14 | 99.9 ± 4.3 | 19.6 ± 0.4 | 78.5 ± 1.28 | 9.13 ± 0.63 | 54.8 ± 3.35 | 3.28 ± 4.63 | 54.5 ± 5.5 | 28.8 ± 7.9 | 79.2 ± 7.8 | 21.9 ± 2.2 | 100 to 200 | <100 | – |
| FS(F)(F)(F)(F)c1ccc(Nc2nc3ccccc3nc2Cl)cc1 [TD81, 3-chloro-N-(4-(Pentafluorothio)phenyl)quinoxalin-2-amine] | 116 ± 5.9 | 75.5 ± 3.9 | 103.4 ± 0.14 | 72.4 ± 11.3 | 100 ± 4.1 | 92 ± 3.8 | 100 ± 6.2 | 82.7 ± 2.44 | 86.9 ± 7.36 | 60.2 ± 11.2 | 82.7 ± 5 | 85.8 ± 0.1 | 95.6 ± 15.9 | 69.4 ± 3.4 | >200 | >200 | – |
| Nc1ccc2nc(Nc3ccc(C(F)(F)F)cc3)c(Nc3ccc(C(F)(F)F)cc3)nc2c1 [TD607, N^2,N^3-bis(4-(trifluoromethyl)phenyl)quinoxaline-2,3,6-triamine] | 116 ± 15.5 | 12.1 ± 0.3 | 63.4 ± 53.7 | – | 106 ± 2.6 | 36.7 ± 2.2 | 104 ± 14.2 | 1.34 ± 0.93 | 85.9 ± 10.4 | 0.61 ± 5 | 49.7 ± 2.7 | 13.4 ± 1.6 | 100 ± 5.9 | 9.5 ± 0.6 | >200 | >200 | 1.3 |
| FC(F)(F)Oc1ccc(Nc2nc3ccccc3nc2Cl)cc1 [TD80, 3-chloro-N-(4-(trifluoromethoxy)phenyl)quinoxalin-2-amine] | 119 ± 3.7 | 89.4 ± 11.9 | 104 ± 1.3 | 92.2 ± 4.42 | 103 ± 10.7 | 87.8 ± 9.3 | 91.6 ± 5.42 | 87.56 ± 0.78 | 99.8 ± 11.8 | 88 ± 13.4 | 106 ± 5.2 | 52.3 ± 2.4 | 110 ± 6 | 83.4 ± 16.4 | >200 | >200 | – |
